Experimental data from publication PMC12285096, “Tirzepatide mitigates Stroke-Induced Blood-Brain barrier disruption by modulating Claudin-1 and C/EBP-α pathways” (Molecular Medicine, 2025).

Assays:
[1] = test system: MCAO mice; test: Behavioral toxicity observation in the MCAO model; details: TZP 10 nmol/kg i.p. weekly
[2] = test system: blood-brain barrier of MCAO mice; test: BBB permeability assay, 14C-sucrose influx in mice; assay type: in vivo, mouse; details: for BBB permeability (14C-sucrose), relative to Sham = 100: C/EBP-α experiment, MCAO 272.1%, Fig. 5B; for 14C-sucrose influx rate (Ki), right cerebral hemisphere: n = 6, mean ± SD
Excerpt: To evaluate the therapeutic function of TZP against IS, four groups were divided: Sham, TZP, MCAO, and MCAO + TZP groups. In the Sham and MCAO groups, normal saline was intraperitoneally administered to sham-operated and MCAO-operated wide-type (WT) mice once a week for 8 weeks, respectively. In the TZP and MCAO + TZP groups, sham-operated and MCAO-operated WT mice were intraperitoneally administered with 10 nmol/kg TZP once a week for 8 weeks, respectively. To confirm the involvement of C/EBPα in the function of TZP, four groups were divided: Sham, MCAO, MCAO + TZP, and MCAO + C/EBP-α-/- + TZP. Administrations in the Sham, MCAO, and MCAO + TZP groups were described above. MCAO-operated C/EBP-α-/- mice in the MCAO + C/EBP-α-/- + TZP group received an intraperitoneal injection of 10 nmol/kg TZP every week for eight weeks. ^14C-sucrose (1 µCi, i.v.) was administered, and brain uptake was measured after 10 min. The influx rate (Ki, µL/g/min) was calculated as [^14C-sucrose]brain (dpm/g)/[^14C-sucrose]plasma (dpm/mL) × time (min).

[3] = test system: MCAO mice; test: TTC staining, infarct volume in MCAO mice; assay type: in vivo, mouse; details: MCAO + TZP mice, 10 nmol/kg i.p., MCAO mice 38.5 ± 4.2%, mean ± SD, Fig. 1B
[4] = test system: C/EBP-α; test: C/EBP-α expression in OGD/R-stimulated HBMVECs (real-time PCR, western blot); assay type: cell-based, human; details: OGD/R + 50 and 100 nM TZP vs. OGD/R, Fig. 8A, B
Description: 1 mL of RNAiso Plus solution was added to the pulverized rodent cerebral cortex samples or cellular material. Following complete homogenization, the liquid fraction was extracted after high-speed centrifugation. The overall RNA pellet was then washed with 75% ethanol, and the RNA was subsequently harvested for reverse transcription. These specific procedures were carried out in accordance with the instructions provided in the PrimeScript RT reagent Kit (TaKaRa, Japan). Real-time PCR detection was performed following the experimental protocols of the Applied Biosystems 7300 instrument. Gene expression levels were determined based on cycle threshold counts. Claudin-1 and C/EBP-α were analyzed in brain homogenates (right hemisphere: Sham, MCAO, MCAO + TZP) and HBMVECs (Control, […] lysis solution, composed of 1% protease inhibitor in RIPA buffer (Sigma-Aldrich, R0278), was introduced to samples, which were homogenized over ice for 30 min. The homogenate was centrifuged at 13,500 rpm for 10 min at 4 °C. Protein was quantified using the BCA assay kit (Sigma-Aldrich, BCA1), and 50 μg protein/lane was separated on 10% SDS-PAGE and transferred to PVDF in electrophoresis buffer at 200 mA for 2 h. The membrane was blocked with 5% skim milk in TBST for 1 h. […] Bands were detected via ECL (Bio-Rad, 1705061), quantified with ImageJ, and normalized to GAPDH. […]

[5] = test system: HBMVECs; test: FITC-dextran permeation across OGD/R-challenged HBMVECs; assay type: cell-based, human
Description: HBMVECs were sourced from ATCC (USA). These cells were cultivated in a medium specifically designed for endothelial cultures, enriched with 10% FBS, and maintained in an incubator set at a temperature of 37 °C with 5% CO2. For OGD/R modeling, the culture medium was replaced with a serum-free, glucose-free medium, and then it was placed in a hypoxic environment (1% O2, 5% CO2, 94% N2) at a 37 °C incubator for 10 h. After 10 h, the normal medium containing serum was added, and the normal oxygen supply was restored. The cells were then kept in a 37 °C constant temperature incubator for 24 h of reoxygenation. To silence C/EBP-α, HBMVECs were transduced with adenovirus harboring a short hairpin RNA (shRNA) specifically designed to knock down C/EBP-α (Ad-viral sh-C/EBP-α) for 48 h. A serum-free medium was used to dilute FITC-dextran to various concentrations for the establishment of a calibration curve. Subsequently, HBMVECs were cultured in the upper section of the Transwell setup. Thereafter, 100 µL of a 1 mg/mL FITC-conjugated dextran solution was added to the upper section and allowed to rest for 1 h in a shielded environment at 37 °C with 5% CO2. Post incubation, 100 µL of fluid was drawn from the lower section, and the luminescence intensity of the fluid in the lower section was quantified using a luminescence photometer (494/520 nm). Regarding the calibration curve and the observed luminescence intensity, the permeation level of FITC-dextran across the Transwell chamber was computed (µg/mL).

CC[C@H](C)[C@H](NC(=O)[C@H](CC(C)C)NC(=O)[C@H](Cc1c[nH]c2ccccc12)NC(=O)[C@H](CCC(N)=O)NC(=O)[C@@H](NC(=O)[C@H](Cc1ccccc1)NC(=O)[C@H](C)NC(=O)[C@H](CCCCNC(=O)COCCOCCNC(=O)COCCOCCNC(=O)CC[C@H](NC(=O)CCCCCCCCCCCCCCCCCCC(=O)O)C(=O)O)NC(=O)[C@H](CCC(N)=O)NC(=O)[C@H](C)NC(=O)[C@@H](NC(=O)[C@H](CCCCN)NC(=O)[C@H](CC(=O)O)NC(=O)[C@H](CC(C)C)NC(=O)C(C)(C)NC(=O)[C@@H](NC(=O)[C@H](CO)NC(=O)[C@H](Cc1ccc(O)cc1)NC(=O)[C@H](CC(=O)O)NC(=O)[C@H](CO)NC(=O)[C@@H](NC(=O)[C@H](Cc1ccccc1)NC(=O)[C@@H](NC(=O)CNC(=O)[C@H](CCC(=O)O)NC(=O)C(C)(C)NC(=O)[C@@H](N)Cc1ccc(O)cc1)[C@@H](C)O)[C@@H](C)O)[C@@H](C)CC)[C@@H](C)CC)C(C)C)C(=O)N[C@@H](C)C(=O)NCC(=O)NCC(=O)N1CCC[C@H]1C(=O)N[C@@H](CO)C(=O)N[C@@H](CO)C(=O)NCC(=O)N[C@@H](C)C(=O)N1CCC[C@H]1C(=O)N1CCC[C@H]1C(=O)N1CCC[C@H]1C(=O)N[C@@H](CO)C(N)=O [TZP, Tirzepatide]
Behavioral toxicity [1]: no overt behavioral toxicity
BBB permeability (14C-sucrose), relative to Sham = 100 ([2]; MCAO + TZP, WT mice): 141.9%
BBB permeability (14C-sucrose), relative to Sham = 100 ([2]; TZP-treated MCAO C/EBP-α-/- mice): 205.7%
14C-sucrose influx rate (Ki), right cerebral hemisphere ([2]; MCAO + TZP group (10 nmol/kg i.p. weekly, 8 weeks), MCAO 2.582 ± 0.156, P < 0.005 vs. MCAO): 1.447 ± 0.103 µL/g/min
14C-sucrose influx rate (Ki), right cerebral hemisphere ([2]; TZP group (sham-operated, 10 nmol/kg i.p. weekly, 8 weeks), Sham 1.00 ± 0.028, P = 0.89 vs. Sham): 0.995 ± 0.032 µL/g/min
Infarct volume (% of the ipsilateral hemisphere) [3]: 18.7 ± 3.1%
C/EBP-α levels (mRNA, protein) [4]: largely promoted
FITC concentrations in the lower chamber (FITC-dextran permeation) ([5]; OGD/R + 50 nM TZP, 24 h, control 0.41, OGD/R 1.15, Fig. 6A): 0.83 mg/mL
FITC concentrations in the lower chamber (FITC-dextran permeation) ([5]; OGD/R + 100 nM TZP, 24 h, control 0.41, OGD/R 1.15, Fig. 6A): 0.57 mg/mL
FITC concentrations in the lower chamber (FITC-dextran permeation) ([5]; sh-C/EBP-α experiment, OGD/R + TZP (100 nM), control 0.42, OGD/R 1.03, Fig. 9B): 0.61 mg/mL
FITC concentrations in the lower chamber (FITC-dextran permeation) ([5]; sh-C/EBP-α experiment, OGD/R + sh-C/EBP-α + TZP (100 nM), control 0.42, OGD/R 1.03, Fig. 9B): 0.93 mg/mL
